Reference: the NIST ThermoML archive (doi:10.1021/acs.jced.7b00654)
± gives the expanded uncertainty stated by the source.

What was measured:
[1] = 96.7 kPa, Vibrating tube method
[2] = xn = mol fraction of the nth substance listed; conditions: 96.7 kPa, Liquid, Vibrating tube method

SMILES	mass density ([2]; 303.15 K, x2 = 0) [kg/m3]	mass density ([2]; 308.15 K, x2 = 0) [kg/m3]	mass density ([2]; 313.15 K, x2 = 0) [kg/m3]	mass density ([2]; 318.15 K, x2 = 0) [kg/m3]	mass density ([2]; 323.15 K, x2 = 0) [kg/m3]	mass density ([2]; 328.15 K, x2 = 0) [kg/m3]	mass density ([2]; 333.15 K, x2 = 0) [kg/m3]	mass density ([2]; 338.15 K, x2 = 0) [kg/m3]	mass density ([2]; 343.15 K, x2 = 0) [kg/m3]	mass density ([2]; 348.15 K, x2 = 0) [kg/m3]	mass density ([2]; 353.15 K, x2 = 0) [kg/m3]	other results
CCCCn1cc[n+](C)c1.[Cl-] [1-butyl-3-methylimidazolium chloride]												mass density ([1]; 303.15 K, Metastable liquid): 1079.41 ± 2.3 kg/m3; mass density ([1]; 308.15 K, Metastable liquid): 1076.58 ± 2.3 kg/m3; mass density ([1]; 313.15 K, Metastable liquid): 1073.78 ± 2.3 kg/m3; mass density ([1]; 318.15 K, Metastable liquid): 1070.99 ± 2.3 kg/m3; mass density ([1]; 323.15 K, Metastable liquid): 1068.19 ± 2.3 kg/m3; mass density ([1]; 328.15 K, Metastable liquid): 1065.36 ± 2.3 kg/m3; mass density ([1]; 333.15 K, Metastable liquid): 1062.6 ± 2.3 kg/m3; mass density ([1]; 338.15 K, Metastable liquid): 1059.87 ± 2.3 kg/m3; mass density ([1]; 343.15 K, Liquid): 1057.15 ± 2.3 kg/m3; mass density ([1]; 348.15 K, Liquid): 1054.42 ± 2.3 kg/m3; mass density ([1]; 353.15 K, Liquid): 1051.69 ± 2.3 kg/m3
C[S+](C)[O-] [dimethyl sulfoxide] + CCCCn1cc[n+](C)c1.[Cl-]	1090.29 ± 2.2	1085.28 ± 2.2	1080.3 ± 2.2	1075.31 ± 2.2	1070.32 ± 2.2	1065.33 ± 2.1	1060.34 ± 2.1	1055.34 ± 2.1	1050.35 ± 2.1	1045.34 ± 2.1	1040.33 ± 2.1	
CCCCn1cc[n+](C)c1.[Cl-] [1-butyl-3-methylimidazolium chloride] + c1ccncc1												mass density ([2]; 303.15 K, x1 = 1): 1079.41 ± 2.3 kg/m3; mass density ([2]; 308.15 K, x1 = 1): 1076.58 ± 2.3 kg/m3; mass density ([2]; 313.15 K, x1 = 1): 1073.78 ± 2.3 kg/m3; mass density ([2]; 318.15 K, x1 = 1): 1070.99 ± 2.3 kg/m3; mass density ([2]; 323.15 K, x1 = 1): 1068.19 ± 2.3 kg/m3; mass density ([2]; 328.15 K, x1 = 1): 1065.36 ± 2.3 kg/m3; mass density ([2]; 333.15 K, x1 = 1): 1062.6 ± 2.3 kg/m3; mass density ([2]; 338.15 K, x1 = 1): 1059.87 ± 2.3 kg/m3; mass density ([2]; 343.15 K, x1 = 1): 1057.15 ± 2.3 kg/m3; mass density ([2]; 348.15 K, x1 = 1): 1054.42 ± 2.3 kg/m3; mass density ([2]; 353.15 K, x1 = 1): 1051.69 ± 2.3 kg/m3
CN(C)C=O [dimethylformamide] + CCCCn1cc[n+](C)c1.[Cl-]	939.18 ± 1.9	934.41 ± 1.9	929.64 ± 1.9	924.86 ± 1.9	920.07 ± 1.9	915.26 ± 1.8	910.44 ± 1.8	905.6 ± 1.8	900.74 ± 1.8	895.87 ± 1.8	890.98 ± 1.8	
CC(=O)N(C)C [N,N-dimethylethanamide] + CCCCn1cc[n+](C)c1.[Cl-]	931.85 ± 2	927.26 ± 2	922.66 ± 2	918.06 ± 2	913.44 ± 1.9	908.81 ± 1.9	904.16 ± 1.9	899.53 ± 1.9	894.87 ± 1.9	890.19 ± 1.9	885.51 ± 1.9	
